Measurements published in patent US20240066075A1, “METHODS AND USES OF MICROBIOME COMPOSITIONS, COMPONENTS, OR METABOLITES FOR TREATING EYE DISORDERS” (MarvelBiome, Inc., priority 2021, published 2024).

System: NaIO3-treated ARPE-19 cells
Experiment: NaIO3-induced degradation of ARPE-19 cells, MTT cell viability assay
Assay type: cell-based, human
Details: 16 hours
Procedure: Cell Culture: ARPE-19 passages 3-7 were used for all experiments. Cells were cultured in %-well plates in DMEM:F12 with 10% of FBS, and incubated at 37° C. with 5% CO2 humidified atmosphere. […] Cell Viability Assay: The colorimetric MTT assay was used to check cell viability. […] At the same time different MBTs, labeled 1 through 10 and summarized in FIG. 2 and Table 2 below, were given to the treatment group at a concentration of 10^6 CFU. After 16 hours of incubation, the absorbance cell viability was evaluated by spectrophotometrically using a microplate reader at 600 nm. Cell Culture: ARPE-19 passages 3-7 were used for all experiments. Cells were cultured in 96-well plates in DMEM:F12 with 10% of FBS, and incubated at 37° C. with 5% CO2 humidified atmosphere. […] Cell Viability Assay: The colorimetric MTT assay was used to check cell viability. […] In the control group, cells were treated only with DMEM:F12 (control media; labeled 'mock-treated' in FIG. 3). […] After 16 hours of incubation, the absorbance cell viability was evaluated by spectrophotometrically using a microplate reader at 600 nm. […] After 16 hours of incubation, the absorbance cell viability was evaluated by spectrophotometrically using a microplate reader at 600 nm. […] After 16 hours of incubation, the absorbance cell viability was evaluated by spectrophotometrically using a microplate reader at 600 nm.

SMILES | cell viability of NaIO3-treated ARPE-19 cells compared to controls (MTT) (1200 μg/ml NaIO3, all tested concentrations of 5-keto-gluconate (0.1%, 0.2%, 0.4%, 0.5% w/v)) | cell viability of NaIO3-treated ARPE-19 cells compared to controls (MTT) (1200 μg/ml NaIO3, 0.1% (w/v) of 2-keto-gluconate)
O=C(CO)[C@@H](O)[C@H](O)[C@@H](O)C(=O)O [5-keto-gluconate] | improved cell viability | –
O=C(O)C(=O)[C@@H](O)[C@H](O)[C@H](O)CO [2-keto-gluconate] | – | improved cell viability
